Source: patent publication US20050026977A1, “Zonisamide use in eating disorders” (priority 2002, published 2005)

How the values were obtained:
cats [1] = details: cortical freezing in cats; cited from earlier work
rats = details: cortical application of tungstic acid gel in rats; cited from earlier work
kindled rat model = details: in vivo; cited from earlier work
[2] = tested on: GABA/benzodiazepine receptor ionophore complex; details: in vitro; cited from earlier work
cats [3] = details: electrical stimulation of the visual cortex; cited from earlier work
[4] = tested on: cultured mouse spinal cord neurons; details: 10-30 μg/mL; cited from earlier work
[5] = in vivo; cited from earlier work
[6] = tested on: obese subjects (BMI of 30-44 kg/m^2); assay: 16-week randomized, double-blind, placebo-controlled trial of zonisamide in obesity; type: in vivo, human
Description: Objective: Short-term efficacy and safety of zonisamide in the treatment of obesity was evaluated. Inclusion Criteria: (1) Age 21-50; (2) BMI of 30-44 kg/m^2; and (3) Otherwise healthy as determined by the principal investigator. […] Method: 60 subjects were assigned to receive zonisamide or placebo (1:1 ratio) in a randomized, double-blind fashion for 16 weeks in addition to a slightly hypocaloric (500 kcal/day deficit) diet. Zonisamide dosing was flexible with a maximum of 600 mg/day. Zonisamide was started at 100 mg/d. Based on tolerability, the dose was titrated up as follows: Weeks 3-4: 200 mg/d; Weeks 5-6: 300 mg/d; Weeks 7-12: 400 mg/d. At the end of week 12, for those where at least 5% weight loss was not achieved, the dose was further increased to 600 mg/d. The entire dose is given at bedtime. However, based on tolerability, a part of the daily dose may be given in the morning.

beagle dogs = details: dog, in vivo, 75 mg/kg/day; cited from earlier work
patients = patients treated with zonisamide; cited from earlier work
rat hippocampal slices = details: 10-30 μg/mL; cited from earlier work
[7] = preliminary studies; cited from earlier work

Structure (SMILES) | interictal spikes and secondarily generalized seizures (cats [1]) | interictal spikes and secondarily generalized seizures (rats) | anticonvulsant activity in threshold for generalized seizures (kindled rat model) | binding to GABA/benzodiazepine receptor ionophore complex [2] | duration of cortical focal seizures (cats [3]) | effect on postsynaptic GABA or glutamate responses [4] | effect on synaptically-driven electrical activity [4] | adverse effect on appetite [5] | average bodyweight lost ([6]; 16-week period, all randomized subjects, last observation carried forward, flexible dosing, maximum 600 mg/day, plus hypocaloric diet, p<0.0001 vs placebo) [%] | greater weight loss over placebo treatment (random coefficient regression estimate) ([6]; 16-week study duration, effects for age, race, gender, BMI, percent body fat, p<0.0001) [kg] | efficacy versus placebo as adjunct to hypocaloric diet in treatment of obesity ([6]; 16 weeks) | tolerability / side effects ([6]; 16 weeks, up to 600 mg/day) | subjects who lost ≥5% weight ([6]; 16 weeks, responders/subjects in group, p<0.0003 vs placebo) | body weight change in chronic toxicity test (beagle dogs) | course of weight loss over time (patients) | weight loss as adverse event (patients) | effect on neuronal or glial uptake of [^3H]-GABA (rat hippocampal slices) | effect on appetite and binging [7]
NS(=O)(=O)Cc1noc2ccccc12 [zonisamide, 1,2-benzisoxazole-3-methanesulfonamide] | suppresses both interictal spikes and the secondarily generalized seizures | suppresses both interictal spikes and the secondarily generalized seizures | demonstrated an anticonvulsant activity | binds to the GABA/benzodiazepine receptor ionophore complex in an allosteric fashion which does not produce changes in chloride flux | reduced the duration of cortical focal seizures | without affecting postsynaptic GABA or glutamate responses | suppresses synaptically-driven electrical activity | loss of appetite as an adverse effect | 5.98 | 4.99 | significantly more effective than placebo | tolerated well with minimal side effects | 17/30 | early body weight losses occurred | the weight loss did not continue over time | weight loss was an adverse event | without affecting | 
CC1(C)O[C@@H]2[C@@H](CO[C@@]3(COS(N)(=O)=O)OC(C)(C)O[C@@H]23)O1 [topiramate] |  |  |  |  |  |  |  |  |  |  |  |  |  |  |  |  |  | suppress the appetite and to reduce the amount of binging
